Data as given in ChEMBL document CHEMBL1649194, “Pharmacokinetics of intracameral voriconazole injection” (Antimicrob Agents Chemother, 2009).

Key:
[1] = Half life in New Zealand White rabbit eye administered as intracameral injection; format: ADME, tissue-based, Oryctolagus cuniculus; details: topical or ocular
[2] = Drug level in New Zealand White rabbit eye aqueous humor at 25 ug/25 ul administered as intracameral injection measured after 30 mins; format: ADME, tissue-based, Oryctolagus cuniculus; details: topical or ocular, read-out: Drug uptake
[3] = Drug level in New Zealand White rabbit eye aqueous humor at 25 ug/25 ul administered as intracameral injection measured after 180 mins; format: ADME, tissue-based, Oryctolagus cuniculus; details: topical or ocular, read-out: Drug uptake
[4] = Drug level in New Zealand White rabbit eye aqueous humor at 25 ug/25 ul administered as intracameral injection measured after 60 mins; format: ADME, tissue-based, Oryctolagus cuniculus; details: topical or ocular, read-out: Drug uptake
[5] = Drug level in New Zealand White rabbit eye aqueous humor at 25 ug/25 ul administered as intracameral injection measured after 15 mins; format: ADME, tissue-based, Oryctolagus cuniculus; details: topical or ocular, read-out: Drug uptake
[6] = Half life in New Zealand White rabbit eye aqueous humor at 25 ug/25 ul administered as intracameral injection; format: ADME, tissue-based, Oryctolagus cuniculus, Aqueous humor of eyeball; details: topical or ocular
[7] = Drug level in New Zealand White rabbit eye aqueous humor at 25 ug/25 ul administered as intracameral injection measured after 90 mins; format: ADME, tissue-based, Oryctolagus cuniculus; details: topical or ocular, read-out: Drug uptake
[8] = Drug level in New Zealand White rabbit eye aqueous humor at 25 ug/25 ul administered as intracameral injection measured after 45 mins; format: ADME, tissue-based, Oryctolagus cuniculus; details: topical or ocular, read-out: Drug uptake
[9] = Drug level in New Zealand White rabbit eye aqueous humor at 25 ug/25 ul administered as intracameral injection measured after 150 mins; format: ADME, tissue-based, Oryctolagus cuniculus; details: topical or ocular, read-out: Drug uptake
[10] = Half life in human eye administered as intracameral injection; format: ADME, tissue-based
[11] = Drug level in New Zealand White rabbit eye aqueous humor at 25 ug/25 ul administered as intracameral injection measured after 120 mins; format: ADME, tissue-based, Oryctolagus cuniculus; details: topical or ocular, read-out: Drug uptake
[12] = Half life in human serum; format: ADME, cell-free
[13] = Half life in rabbit serum; format: ADME, cell-free, Oryctolagus cuniculus

Question: For `NCC[C@H](O)C(=O)N[C@@H]1C[C@H](N)[C@@H](O[C@H]2O[C@H](CN)[C@@H](O)[C@H](O)[C@H]2O)[C@H](O)[C@H]1O[C@H]1O[C@H](CO)[C@@H](O)[C@H](N)[C@H]1O` [AMIKACIN], which half-life [1] is on record?
Answer: 0.58 h

Question: What does the source list for `C[C@@H](c1ncncc1F)[C@](O)(Cn1cncn1)c1ccc(F)cc1F` [VORICONAZOLE]?
Answer: concentration at 0.5 h [2]: 13500 ng/mL; concentration at 3 h [3]: 150 ng/mL; concentration at 1 h [4]: 5100 ng/mL; concentration at 0.25 h [5]: 25400 ng/mL; half-life [6]: 0.367 h; concentration at 1.5 h [7]: 2670 ng/mL; concentration at 0.75 h [8]: 7730 ng/mL; concentration at 2.5 h [9]: 390 ng/mL; half-life ([10]; eye, topical or ocular): 3.27 h; concentration at 2 h [11]: 1400 ng/mL; half-life [12]: 6.5 h; half-life [13]: 2.5 h

Question: For GENTAMICIN, which t1/2 ([10]; topical_or_ocular) is on record?
Answer: 0.85 h
